ChEMBL document CHEMBL1201862, “PubChem BioAssay data set” (2004)
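Method: 48-hour compound exposure of cells in 96-well plates, five concentrations, linear interpolation of endpoints. The concentration for 50% growth inhibition is given as GI50.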 Activity calls are given as the source filed them. Cut-off read from the data, not from the text of the source: active = GI50 up to about 1.1 µM and inactive = higher.

Experiments:
Experiment in all cases: DTP human tumour cell line panel, 48 h
DMS-114 = tested on: DMS-114
EKVX = tested on: EKVX
SW-620 = tested on: SW-620
NCI/ADR-RES = tested on: NCI/ADR-RES
UACC-257 = tested on: UACC-257
CCRF-CEM = tested on: CCRF-CEM
HCT-15 = tested on: HCT-15
U-251 = tested on: U-251
A498 = tested on: A498
OVCAR-4 = tested on: OVCAR-4
LOX IMVI = tested on: LOX IMVI
SK-MEL-28 = tested on: SK-MEL-28
RXF 393 = tested on: RXF 393
ACHN = tested on: ACHN
786-0 = tested on: 786-0
MDA-MB-231 = tested on: MDA-MB-231
DU-145 = tested on: DU-145
T47D = tested on: T47D
BT-549 = tested on: BT-549
Hs-578T = tested on: Hs-578T

Compound | GI50 (DMS-114) | GI50 (EKVX) | GI50 (SW-620) | GI50 (NCI/ADR-RES) | GI50 (UACC-257) | GI50 (CCRF-CEM) | GI50 (HCT-15) [µM] | GI50 (U-251) | GI50 (A498) | GI50 (OVCAR-4) | GI50 (LOX IMVI) | GI50 (SK-MEL-28) | GI50 (RXF 393) | GI50 (ACHN) | GI50 (786-0) | GI50 (MDA-MB-231) | GI50 (DU-145) | GI50 (T47D) | GI50 (BT-549) | GI50 (Hs-578T)
CC1=C2C(O)C(C(C)C(=O)NCC(C)C)CCC2(C)C=CC1=O (stereo not drawn) | > 100 µM (inactive) | > 100 µM (inactive) | > 100 µM (inactive) | > 100 µM (inactive) | > 100 µM (inactive) | > 100 µM (inactive) | > 100 | > 100 µM (inactive) | > 100 µM (inactive) | > 100 µM (inactive) | > 100 µM (inactive) | > 100 µM (inactive) | > 100 µM (inactive) |  |  |  |  |  |  | 
CCCCCCCC(=O)OC(COC(=O)Cc1ccccc1)COC(=O)C(C)(C)C (stereo not drawn) | > 100 µM (inactive) |  | > 100 µM (inactive) |  |  | > 100 µM (inactive) | > 100 | > 100 µM (inactive) | > 100 µM (inactive) | > 100 µM (inactive) | > 100 µM (inactive) | > 100 µM (inactive) |  | > 100 µM (inactive) | > 100 µM (inactive) |  |  |  |  | 
Cn1c(=O)c2nc3c4ccccc4c(=O)n(C)c3nc2n(C)c1=O | > 100 µM (inactive) | > 100 µM (inactive) | > 100 µM (inactive) |  | > 100 µM (inactive) |  | > 100 | > 100 µM (inactive) |  |  |  | > 100 µM (inactive) | > 100 µM (inactive) | > 100 µM (inactive) | > 100 µM (inactive) |  |  |  |  | 
COC(=O)c1sc(C(=O)OC)c2c1C[S+]([O-])C2 | > 100 µM (inactive) | > 100 µM (inactive) | > 100 µM (inactive) |  | > 100 µM (inactive) | > 100 µM (inactive) | > 100 | > 100 µM (inactive) | > 100 µM (inactive) | > 100 µM (inactive) | > 100 µM (inactive) | > 100 µM (inactive) | > 100 µM (inactive) |  | > 100 µM (inactive) |  |  |  |  | 
O=S(=O)(c1ccccc1)c1nccs1 | > 100 µM (inactive) | > 100 µM (inactive) | > 100 µM (inactive) |  | > 100 µM (inactive) |  | > 100 | > 100 µM (inactive) | > 100 µM (inactive) | > 100 µM (inactive) | > 100 µM (inactive) | > 100 µM (inactive) |  | > 100 µM (inactive) | > 100 µM (inactive) |  |  |  |  | 
Cn1cc(NC(=O)c2cc(NC(=O)CCCCCCCC(=O)Nc3cc(C(=O)Nc4cc(C(=O)NCCC(=N)N)n(C)c4)n(C)c3)cn2C)cc1C(=O)NCCC(=N)N | 4.03 µM (inactive) | 22 µM (inactive) | 32.7 µM (inactive) |  | 5.7 µM (inactive) | 25.3 µM (inactive) | > 100 | 17.2 µM (inactive) | 13.7 µM (inactive) | 46.1 µM (inactive) | 15 µM (inactive) | 11.7 µM (inactive) | 17 µM (inactive) | 58.1 µM (inactive) | 34 µM (inactive) |  |  |  |  | 
C=CC12CN(C)C3C4COC(CC41)C1(C(=O)Nc4ccccc41)C32 (stereo not drawn) | > 144 µM (inactive) | > 200 µM (inactive) | 174 µM (inactive) | > 165 µM (inactive) | > 200 µM (inactive) | 96.6 µM (inactive) | > 195 | > 156 µM (inactive) | 9.29 µM (inactive) | > 200 µM (inactive) | > 150 µM (inactive) | 175 µM (inactive) | > 179 µM (inactive) |  |  |  |  |  |  | 
C=C(C)C(=O)OC1C/C(CO)=C\C(O)C/C(C)=C/C2OC(=O)C(=C)C21 (stereo not drawn) | 23.7 µM (inactive) | 25.2 µM (inactive) | 16.7 µM (inactive) |  |  | 8.65 µM (inactive) | 14.1 | > 100 µM (inactive) |  | 25.9 µM (inactive) | 18.5 µM (inactive) | 17.3 µM (inactive) |  | 21.3 µM (inactive) | 16 µM (inactive) |  |  |  |  | 
Cc1cccc(Cl)c1NC(N)=S | 18.5 µM (inactive) | 48.2 µM (inactive) | 16.6 µM (inactive) |  | > 100 µM (inactive) | 35.6 µM (inactive) | 18.4 | 20.8 µM (inactive) | 66.7 µM (inactive) | 50.9 µM (inactive) |  | 55.1 µM (inactive) |  | 27.5 µM (inactive) | 20.2 µM (inactive) |  |  |  |  | 
C[C@H]1CC[C@]2(NC1)O[C@H]1C[C@H]3[C@@H]4CC[C@H]5C[C@@H](O[C@@H]6O[C@H](CO)[C@H](O[C@@H]7O[C@H](CO)[C@@H](O)[C@H](O[C@@H]8OC[C@@H](O)[C@H](O)[C@H]8O)[C@H]7O[C@@H]7O[C@H](CO)[C@@H](O)[C@H](O)[C@H]7O)[C@H](O)[C@H]6O)CC[C@]5(C)[C@H]4CC[C@]3(C)[C@H]1[C@@H]2C [TOMATINE] |  | 0.836 µM (active) | 2.04 µM (inactive) | 1.9 µM (inactive) | 2.12 µM (inactive) | 2.52 µM (inactive) | 2.48 | 1.02 µM (active) | 1.87 µM (inactive) | 1.39 µM (inactive) | 2.17 µM (inactive) | 1.26 µM (inactive) | 1.8 µM (inactive) | 1.71 µM (inactive) | 1.29 µM (inactive) | 1.3 µM (inactive) | 1.64 µM (inactive) | 1.97 µM (inactive) | 2.37 µM (inactive) | 1.64 µM (inactive)
